# How the values were obtained:
# Assay in all cases: DiscoverX scanMAX binding assay
# CIT = target: T1, CIT (Homo sapiens, UniProt O14578); settings: 1 μM
# T1 construct: purchased Eurofins (radiometric) / Eurofins DiscoverX scanMAX / Reaction Biology / SignalChem
# Description: (§1) This panel includes 403 wild-type (WT) human kinases but not TTBK1/2. […] Substantial overlap between the MRC and DiscoverX scanMAX kinase panels allows the comparison of results for the same kinases in two different assay formats (enzymatic versus binding, respectively) at the same concentration. Selectivity results are included in two columns within Table 1. […] The rightmost column converts this selectivity score into the number of kinases with a PoC < 10 in the scanMAX panel.
# (§2) The Eurofins DiscoverX Corporation scanMAX assay platform was employed to assess the selectivity of specific analogs at a single concentration (1 µM). As described previously, this assay platform profiles a compound against 403 wild-type human kinases and delivers percent of control (PoC) values. These percent of control values are included in Table 1 and corresponding kinome tree diagrams as well as tables for each analog included in Fig. S1.
# PIP5K1C = target: T2, PIP5K1C (Homo sapiens, UniProt O60331); settings: 1 μM
# T2 construct: purchased Eurofins (radiometric) / Eurofins DiscoverX scanMAX / Reaction Biology / SignalChem
# T2 sequence (O60331 whole entry): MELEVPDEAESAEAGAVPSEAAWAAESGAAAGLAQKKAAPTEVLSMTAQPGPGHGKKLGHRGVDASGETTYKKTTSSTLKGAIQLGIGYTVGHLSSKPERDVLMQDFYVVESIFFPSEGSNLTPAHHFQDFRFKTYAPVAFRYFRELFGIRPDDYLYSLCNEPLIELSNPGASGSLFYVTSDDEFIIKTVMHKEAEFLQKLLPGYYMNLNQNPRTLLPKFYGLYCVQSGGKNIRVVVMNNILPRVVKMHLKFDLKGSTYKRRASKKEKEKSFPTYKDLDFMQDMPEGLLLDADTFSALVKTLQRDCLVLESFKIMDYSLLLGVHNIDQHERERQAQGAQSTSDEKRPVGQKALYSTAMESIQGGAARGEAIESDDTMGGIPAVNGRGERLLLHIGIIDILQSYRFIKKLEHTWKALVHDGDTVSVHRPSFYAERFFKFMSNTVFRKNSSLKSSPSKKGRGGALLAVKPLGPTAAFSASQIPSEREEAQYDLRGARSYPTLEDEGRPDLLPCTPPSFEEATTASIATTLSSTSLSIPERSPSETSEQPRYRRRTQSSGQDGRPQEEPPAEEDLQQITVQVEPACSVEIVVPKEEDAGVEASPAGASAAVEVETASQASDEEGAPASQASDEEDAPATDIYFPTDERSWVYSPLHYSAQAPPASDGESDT
# Description: as §1, §2
# PIP5K2C = target: T3, PIP5K2C (Homo sapiens, UniProt Q8TBX8); settings: 1 μM
# T3 construct: purchased Eurofins (radiometric) / Eurofins DiscoverX scanMAX / Reaction Biology / SignalChem
# T3 sequence (Q8TBX8 1-421): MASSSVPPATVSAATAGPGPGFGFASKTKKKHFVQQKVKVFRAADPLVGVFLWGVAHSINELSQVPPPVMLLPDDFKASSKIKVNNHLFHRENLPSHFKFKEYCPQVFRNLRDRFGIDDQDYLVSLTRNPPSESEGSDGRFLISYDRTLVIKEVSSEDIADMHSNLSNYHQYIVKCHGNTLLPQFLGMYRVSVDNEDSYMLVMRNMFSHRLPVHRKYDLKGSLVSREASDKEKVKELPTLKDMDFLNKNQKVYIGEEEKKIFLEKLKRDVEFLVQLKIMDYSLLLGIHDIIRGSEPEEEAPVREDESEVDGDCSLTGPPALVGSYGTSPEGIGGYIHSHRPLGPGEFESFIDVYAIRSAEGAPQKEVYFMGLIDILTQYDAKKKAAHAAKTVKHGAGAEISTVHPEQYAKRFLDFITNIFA
# Description: as §1, §2
# PKNB(M.tuberculosis) = target: T4, PKNB(M.tuberculosis) (Mycobacterium tuberculosis, UniProt P9WI81); settings: for PKNB(M.tuberculosis) % control at 1000nM: 1 μM
# T4 construct: purchased Eurofins (radiometric) / Eurofins DiscoverX scanMAX / Reaction Biology / SignalChem
# T4 sequence (P9WI81 whole entry): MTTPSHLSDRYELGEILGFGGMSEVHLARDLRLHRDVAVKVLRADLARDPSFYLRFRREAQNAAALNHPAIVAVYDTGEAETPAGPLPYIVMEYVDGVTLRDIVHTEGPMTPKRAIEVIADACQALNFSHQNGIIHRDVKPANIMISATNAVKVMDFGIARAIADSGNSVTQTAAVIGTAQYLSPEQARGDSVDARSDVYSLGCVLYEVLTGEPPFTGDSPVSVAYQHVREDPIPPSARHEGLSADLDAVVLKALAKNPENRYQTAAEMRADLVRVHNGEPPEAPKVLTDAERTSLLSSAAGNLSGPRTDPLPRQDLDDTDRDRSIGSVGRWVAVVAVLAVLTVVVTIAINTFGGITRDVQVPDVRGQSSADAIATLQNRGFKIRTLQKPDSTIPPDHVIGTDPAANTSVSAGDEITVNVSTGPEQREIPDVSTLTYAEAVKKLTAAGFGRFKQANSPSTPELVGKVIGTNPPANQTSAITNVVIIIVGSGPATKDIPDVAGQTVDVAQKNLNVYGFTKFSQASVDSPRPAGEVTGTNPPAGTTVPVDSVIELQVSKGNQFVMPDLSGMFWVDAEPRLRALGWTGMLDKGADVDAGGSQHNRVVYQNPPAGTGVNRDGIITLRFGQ
# Description: as §1, §2
# YSK4 = target: T5, YSK4 (Homo sapiens, UniProt Q56UN5); settings: 1 μM
# T5 construct: purchased Eurofins (radiometric) / Eurofins DiscoverX scanMAX / Reaction Biology / SignalChem
# T5 sequence (Q56UN5 1-1328): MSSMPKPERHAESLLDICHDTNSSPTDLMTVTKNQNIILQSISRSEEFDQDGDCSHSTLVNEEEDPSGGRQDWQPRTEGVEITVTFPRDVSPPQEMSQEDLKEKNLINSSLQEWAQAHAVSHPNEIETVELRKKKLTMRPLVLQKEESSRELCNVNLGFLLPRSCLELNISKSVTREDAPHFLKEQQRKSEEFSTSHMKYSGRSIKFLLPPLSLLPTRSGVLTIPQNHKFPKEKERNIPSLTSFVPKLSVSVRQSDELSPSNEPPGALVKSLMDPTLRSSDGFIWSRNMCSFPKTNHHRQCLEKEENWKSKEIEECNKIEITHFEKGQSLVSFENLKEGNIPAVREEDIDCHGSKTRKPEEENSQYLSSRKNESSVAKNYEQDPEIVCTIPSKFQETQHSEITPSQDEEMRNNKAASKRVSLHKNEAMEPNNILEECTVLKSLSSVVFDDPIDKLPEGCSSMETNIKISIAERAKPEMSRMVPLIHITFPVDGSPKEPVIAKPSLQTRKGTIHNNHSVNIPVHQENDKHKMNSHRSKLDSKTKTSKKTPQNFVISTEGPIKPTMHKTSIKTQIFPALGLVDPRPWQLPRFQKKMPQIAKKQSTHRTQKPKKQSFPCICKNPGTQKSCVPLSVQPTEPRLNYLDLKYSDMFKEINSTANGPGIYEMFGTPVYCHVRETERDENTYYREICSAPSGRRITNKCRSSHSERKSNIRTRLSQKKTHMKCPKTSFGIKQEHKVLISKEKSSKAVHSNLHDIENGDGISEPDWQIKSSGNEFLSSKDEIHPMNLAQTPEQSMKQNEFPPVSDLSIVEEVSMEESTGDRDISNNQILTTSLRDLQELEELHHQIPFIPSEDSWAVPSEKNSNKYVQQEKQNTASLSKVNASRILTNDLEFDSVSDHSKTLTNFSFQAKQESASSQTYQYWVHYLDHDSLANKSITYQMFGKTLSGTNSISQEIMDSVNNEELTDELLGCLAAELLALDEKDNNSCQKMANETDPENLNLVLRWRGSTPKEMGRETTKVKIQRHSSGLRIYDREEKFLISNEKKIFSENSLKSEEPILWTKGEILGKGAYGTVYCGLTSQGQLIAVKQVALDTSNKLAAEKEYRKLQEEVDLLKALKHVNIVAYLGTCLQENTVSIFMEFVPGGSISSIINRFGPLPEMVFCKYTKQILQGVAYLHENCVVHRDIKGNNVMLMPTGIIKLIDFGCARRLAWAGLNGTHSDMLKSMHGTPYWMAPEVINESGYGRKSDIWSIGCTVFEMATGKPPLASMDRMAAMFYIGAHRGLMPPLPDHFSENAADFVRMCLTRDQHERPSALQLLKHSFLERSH
# Description: as §1, §2
# T1 sequence (O14578 whole entry): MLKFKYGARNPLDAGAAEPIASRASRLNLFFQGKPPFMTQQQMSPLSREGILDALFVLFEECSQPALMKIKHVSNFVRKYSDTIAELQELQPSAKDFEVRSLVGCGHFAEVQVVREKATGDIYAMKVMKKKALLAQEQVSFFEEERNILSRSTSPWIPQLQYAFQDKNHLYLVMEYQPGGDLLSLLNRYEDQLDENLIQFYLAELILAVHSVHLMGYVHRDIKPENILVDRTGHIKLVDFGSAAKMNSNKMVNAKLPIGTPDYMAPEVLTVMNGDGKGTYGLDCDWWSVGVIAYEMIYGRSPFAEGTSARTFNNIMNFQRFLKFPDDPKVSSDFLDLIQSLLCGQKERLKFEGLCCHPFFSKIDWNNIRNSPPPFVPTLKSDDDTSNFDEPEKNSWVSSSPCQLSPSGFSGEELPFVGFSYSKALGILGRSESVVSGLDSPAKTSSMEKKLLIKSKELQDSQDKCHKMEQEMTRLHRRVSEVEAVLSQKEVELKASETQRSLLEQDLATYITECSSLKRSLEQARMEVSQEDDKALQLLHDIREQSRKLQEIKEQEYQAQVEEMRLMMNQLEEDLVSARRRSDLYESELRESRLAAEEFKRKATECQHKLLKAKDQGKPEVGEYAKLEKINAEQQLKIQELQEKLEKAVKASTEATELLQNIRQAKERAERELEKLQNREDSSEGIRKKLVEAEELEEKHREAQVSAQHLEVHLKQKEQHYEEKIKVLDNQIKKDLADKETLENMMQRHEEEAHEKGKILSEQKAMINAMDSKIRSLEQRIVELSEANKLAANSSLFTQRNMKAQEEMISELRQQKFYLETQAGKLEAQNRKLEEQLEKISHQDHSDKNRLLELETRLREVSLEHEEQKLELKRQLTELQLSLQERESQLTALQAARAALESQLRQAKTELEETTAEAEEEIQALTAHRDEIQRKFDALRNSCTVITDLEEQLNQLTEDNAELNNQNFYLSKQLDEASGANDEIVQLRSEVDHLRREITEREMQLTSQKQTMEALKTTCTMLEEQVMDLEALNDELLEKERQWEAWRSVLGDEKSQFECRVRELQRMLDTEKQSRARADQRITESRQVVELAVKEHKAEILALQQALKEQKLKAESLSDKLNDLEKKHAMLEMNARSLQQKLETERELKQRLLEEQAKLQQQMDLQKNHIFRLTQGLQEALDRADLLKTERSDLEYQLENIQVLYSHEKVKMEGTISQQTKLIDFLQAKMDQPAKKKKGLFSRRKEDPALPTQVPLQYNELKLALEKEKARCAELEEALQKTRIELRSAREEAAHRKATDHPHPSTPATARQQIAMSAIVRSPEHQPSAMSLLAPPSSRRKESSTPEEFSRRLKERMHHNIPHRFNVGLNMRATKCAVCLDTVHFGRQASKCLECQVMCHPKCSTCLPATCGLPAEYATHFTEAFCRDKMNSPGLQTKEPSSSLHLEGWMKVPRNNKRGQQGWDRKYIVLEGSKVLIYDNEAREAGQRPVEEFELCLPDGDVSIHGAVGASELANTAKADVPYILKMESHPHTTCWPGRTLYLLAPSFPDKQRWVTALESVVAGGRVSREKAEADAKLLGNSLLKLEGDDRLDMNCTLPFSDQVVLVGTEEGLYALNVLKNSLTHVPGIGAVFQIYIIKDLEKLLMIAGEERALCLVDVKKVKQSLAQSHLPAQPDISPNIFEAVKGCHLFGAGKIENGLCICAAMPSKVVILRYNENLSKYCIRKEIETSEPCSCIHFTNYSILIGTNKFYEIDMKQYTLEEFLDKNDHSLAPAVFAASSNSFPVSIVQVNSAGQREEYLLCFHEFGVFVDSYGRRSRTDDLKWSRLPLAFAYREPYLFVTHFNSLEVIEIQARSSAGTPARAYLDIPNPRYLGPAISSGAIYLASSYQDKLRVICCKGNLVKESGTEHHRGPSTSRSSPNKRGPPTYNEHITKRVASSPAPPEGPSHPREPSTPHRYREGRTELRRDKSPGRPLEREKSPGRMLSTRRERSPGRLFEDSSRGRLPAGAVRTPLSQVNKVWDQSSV
Structure (SMILES),CIT (CRIK) % control at 1000nM / DiscoverX PoC value (CIT) [% control],PIP5K1C % control at 1000nM / DiscoverX PoC value (PIP5K1C) [% control],PIP5K2C (PI5P4Kγ) % control at 1000nM / DiscoverX PoC value (PIP5K2C) [% control],"kinase binding, % of control at 1 µM (PKNB(M.tuberculosis); read-out: PKNB(M.tuberculosis) % control at 1000nM) [%]",YSK4 % control at 1000nM / DiscoverX PoC value (YSK4) [% control],PKNB(M.tuberculosis) % control at 1000nM (PKNB(M.tuberculosis)) [% control]
"CC(C)(O)C#Cc1ccc2[nH]c3c(c2c1)-c1nc(N)ncc1CCC3 [AMG28, reference compound]",1.3,3.1,3.1,0.1,0,–
CC(C)(O)C#Cc1ccc2[nH]c3c(c2c1)-c1nc(N)ncc1CC3 [Compound 1],0,0.5,0,–,0,1.7
CC(C)(O)C#Cc1ccc2[nH]cc(-c3ccnc(N)n3)c2c1 [Compound 3],0,0.4,0.2,–,0,0.9

# Source: PMC10104807, “Modulation of tau tubulin kinases (TTBK1 and TTBK2) impacts ciliogenesis” (Scientific Reports, 2023)
